Laboratory results as given in publication PMC8761492 (Life Science Alliance, 2022).
Values joined by “and” are separate entries in the source; they are usually repeats but may differ in a detail not shown here. Identical values can stand only once. Like-named read-outs stand apart in the source and are kept apart here. Starred links: 1 amine or outer side, 2 acyl side, 3 side chain; linkers in the order of their positions; H or OH if unused. Positions of bridges follow the written chain, without caps; N, C: chain ends. Non-standard residues stand in square brackets, D forms with d. Residues, ends and D or L forms follow the SMILES beside them. *: point of attachment. X1 = CC[C@H](C)[C@@H](N[*:1])[C@@H](O)CC(=O)O[C@H](C(=O)[C@H](C)C(=O)[*:2])C(C)C; NMeY = CN[C@@H](Cc1ccc(O)cc1)C(=O)O; dNMeL = CN[C@H](CC(C)C)C(=O)O; Pyruvoyl = CC(=O)C(=O)*

Key:
[1] = cited from earlier work
plasma proteins = experiment: Plasma protein binding by equilibrium dialysis, human plasma; type: in vitro ADME; conditions: for % Bound / % Recovery / % Unbound: single replicates
Experimental: (§1) The binding of plitidepsin to plasma proteins was determined in vitro at three concentrations (100, 250 and 500 ng/ml) in male rat, dog and human plasma ([53]).
(§2) Rat (CD), beagle dog, and human blood was collected at Aptuit Srl from at least three male donors, and plasma prepared by centrifuging blood at 2,000g, 4°C for 10 min. Human plasma was obtained from healthy and fasted male volunteers. Na-heparin was used as the anti-coagulant for all species. All plasma was stored at approximately −20°C and thawed only once, on the day of the experiment.
(§3) Plasma protein binding was assessed using Rapid Equilibrium Dialysis plates pre-loaded with equilibrium dialysis membrane inserts (MWCO ∼8 kD).
(§4) Separation of free compound from protein-bound material was achieved by dialysis of the sample through the membrane under appropriate shaking at 37°C. The suitability of equilibrium dialysis as a method for protein binding determination of plitidepsin was assessed.
(§5) Before experimentation, the time required to reach equilibrium was determined in male rat and human plasma at one concentration (250 ng/ml) and six selected time points (2, 3, 4, 5, 6, and 7 h) at 37°C.
(§6) Plitidepsin stability was assessed in plasma (all species) and PBS at two concentrations (100 and 500 ng/ml for plasma; 0.5 and 50 ng/ml for PBS) by comparing plitidepsin concentration in spiked and preincubated plasma before and after incubation at 37°C for 5 h as determined previously.

[2] = as above; type: in vitro ADME; conditions: male, human; for recovery at 100 ng/mL / fraction unbound at 5 h, 100 ng/mL: nominal 100 ng/mL; for recovery at 500 ng/mL / fraction unbound at 5 h, 500 ng/mL: nominal 500 ng/mL
Experimental: as §1, §2, §3, §4, §5, §6

[3] = 1-hour D1,8,15 q4wk, ref phase 1 programme
[4] = 1-hour iv D1-5 q3wk, ref APL-A-004-98
[5] = 3-hour D1,15 q4wk, ref phase 1 programme
[6] = 24-hour D1,8,15 q4wk, ref phase 1 programme
[7] = 24-hour D1,15 q4wk, plitidepsin alone, ref phase 1 programme
[8] = plasma, single replicates, read-out: % Bound (converted)
[9] = plasma, single replicates, read-out: % Unbound

CC[C@H](C)[C@H]1NC(=O)[C@@H](NC(=O)[C@@H](CC(C)C)N(C)C(=O)[C@@H]2CCCN2C(=O)C(C)=O)[C@@H](C)OC(=O)[C@H](Cc2ccc(OC)cc2)N(C)C(=O)[C@@H]2CCCN2C(=O)[C@H](CC(C)C)NC(=O)[C@@H](C)C(=O)[C@H](C(C)C)OC(=O)C[C@@H]1O [Plitidepsin] (Pyruvoyl-P[dNMeL]T[X1]LP[NMeY](Me); ester 3-C)
MTD [1, 3]: 3.60 mg/m2
RD [1, 3]: 3.2 mg/m2
MTD [1, 4]: 1.35 mg/m2
RD [1, 4]: 1.2 mg/m2
MTD [1, 5]: 6 mg/m2
RD [1, 5]: 5 mg/m2
MTD [1, 6]: 4.50 mg/m2
RD [1, 6]: 3.75 mg/m2
MTD [1, 7]: 6 mg/m2
RD [1, 7]: 5 mg/m2
recommended dose for subsequent phase 2 studies ([1]; cancer patients, daily over 5 consecutive days): 1.2 mg/m^2/day
fraction unbound at 100 ng/mL (plasma proteins; male, human, plasma, nominal 100 ng/mL, Mean ± SD, read-out: % Bound (converted)): 0.017
% Bound (plasma proteins; nominal 100 ng/mL): 98.3% and 98.2%
% Recovery (plasma proteins; nominal 100 ng/mL): 84.7% and 77.7%
% Unbound (plasma proteins; nominal 100 ng/mL): 1.7% and 1.8%
% Bound (plasma proteins; nominal 250 ng/mL): 98.5% and 98%
% Recovery (plasma proteins; nominal 250 ng/mL): 56.7% and 87.3% and 87%
% Unbound (plasma proteins; nominal 250 ng/mL): 1.5% and 2%
% Bound (plasma proteins; nominal 500 ng/mL): 98%
% Recovery (plasma proteins; nominal 500 ng/mL): 78.8%
% Unbound (plasma proteins; nominal 500 ng/mL): 2%
fraction unbound ([2]; independent of drug concentration): 0.02
recovery at 100 ng/mL ([2]; plasma, Mean ± SD): 84.3 ± 6.4%
fraction unbound at 5 h, 100 ng/mL ([2]; plasma, Mean ± SD, read-out: % Unbound): 0.017 ± 0.002
recovery at 100 ng/mL ([2]; plasma, single replicates): 90.4%
fraction unbound at 5 h, 100 ng/mL [2, 8]: 0.014
fraction unbound at 5 h, 100 ng/mL [2, 9]: 0.014
recovery at 250 ng/mL ([2]; plasma, nominal 250 ng/mL, Mean ± SD): 77 ± 17.6%
fraction unbound at 5 h, 250 ng/mL ([2]; plasma, nominal 250 ng/mL, Mean ± SD, read-out: % Bound (converted)): 0.022
fraction unbound at 5 h, 250 ng/mL ([2]; plasma, nominal 250 ng/mL, Mean ± SD, read-out: % Unbound): 0.022 ± 0.008
fraction unbound at 5 h, 250 ng/mL ([2]; plasma, nominal 250 ng/mL, single replicates, read-out: % Bound (converted)): 0.03
fraction unbound at 5 h, 250 ng/mL ([2]; plasma, nominal 250 ng/mL, single replicates, read-out: % Unbound): 0.03
recovery at 500 ng/mL ([2]; plasma, mean, n=2): 80.4%
fraction unbound at 5 h, 500 ng/mL ([2]; plasma, mean, n=2, read-out: % Bound (converted)): 0.019
fraction unbound at 5 h, 500 ng/mL ([2]; plasma, mean, n=2, read-out: % Unbound): 0.019
recovery at 500 ng/mL ([2]; plasma, single replicates): 82%
fraction unbound at 5 h, 500 ng/mL [2, 8]: 0.019
fraction unbound at 5 h, 500 ng/mL [2, 9]: 0.019
